Measured values as given in US20250339569A1, “CARBONIC ANHYDRASE IX LIGANDS” (priority 2021, published 2025).
Starred links: 1 amine or outer side, 2 acyl side, 3 side chain; linkers in the order of their positions; H or OH if unused. Positions of bridges follow the written chain, without caps; N, C: chain ends. Non-standard residues stand in square brackets, D forms with d. Residues, ends and D or L forms follow the SMILES beside them. *: point of attachment. X3 = O=C(O)CN1CCN(CC(=O)O)CCN(CC(=O)NCCCOCCOCCOCCCN*)CCN(CC(=O)O)CC1; X57 = O=C(Cn1ccccc1=O)Nc1cccc(C[C@H](N[*:1])C(=O)[*:2])c1; DOTA = O=C(O)CN1CCN(CC(=O)O)CCN(CC(=O)*)CCN(CC(=O)O)CC1; NGly(3-aminopropyl) = O=C(CN(CCCN[*:3])[*:1])[*:2]; 1Nal = N[C@@H](Cc1cccc2ccccc12)C(=O)O; mXylylene = c1cc(C[*:1])cc(C[*:2])c1; Orn(Me2) = CN(C)CCC[C@H](N)C(=O)O; X2 = O=C(CN1CCC(N[*:1])CC1)[*:2]; Tic = O=C(O)[C@@H]1Cc2ccccc2CN1; Suc = O=C(CCC(=O)[*:2])[*:1]; Isovaleryl = CC(C)CC(=O)*; APAc = not defined here; Thp = NC1(C(=O)O)CCOCC1; Dap = NC[C@H](N)C(=O)O; PhAc = O=C(Cc1ccccc1)*; βAla = NCCC(=O)O; Sar = CNCC(=O)O

target: T1, CAIX-expressing human HT-29 colorectal cancer cells (Homo sapiens, UniProt Q16790); test: FACS binding assay (IC50 determination, competition with tracer 3BP-2776 or 3BP-4149); details: not given
T1 construct: CAIX-expressing human HT-29 colorectal cancer cells; host or cells: HT-29 human colorectal cancer cells
Procedure, shortened: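 HT-29 cells in FACS buffer (PBS, 1% FCS) at 500.000 cells/ml were exposed to compounds competing with a labelled tracer, with biotinylated compounds detected by 1 μg/mL APC-streptavidin for 30 min on ice. APC/Cy5 median fluorescence was read by flow cytometry and IC50 derived by 4PL fit.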

Compound | IC50 [nM]
CC(C)C[C@@H]1NC(=O)[C@H](Cc2c[nH]c3ccccc23)NC(=O)[C@H](CC(=O)O)NC(=O)CNC(=O)[C@H](CCC(=O)O)NC(=O)[C@@H](NC(=O)[C@H](Cc2ccc(O)cc2)NC(=O)[C@@H](NC(=O)Cc2ccccc2)C(C)C)CSCc2cccc(c2)CSC[C@@H](C(N)=O)NC(=O)[C@H](CCC(N)=O)NC(=O)[C@H](Cc2c[nH]c3ccccc23)NC(=O)[C@H]([C@@H](C)O)NC1=O [3BP-3109] (PhAc-VYCEGDWLTWQC-NH2; linker 3-12 via mXylylene) | < 10

same assay, conditions: FACS binding assay, HT-29 cells, competition with tracer 3BP-2776 (10 nM, biotin-labeled), 4° C., 1 hour

Compound | pIC50 category (activity)
3BP-4252 ({DOTA-APAc}-VYCEG[NGly(3-aminopropyl)]WLEWSC-NH2; linker 3-12 via mXylylene; lactam 6-9; reading uncertain) | B (pIC50 values between 7.1 and 8.0)

same assay, conditions: FACS binding assay, HT-29 cells, competition with tracer 3BP-2776 (10 nM, biotin-labeled), 4° C., 1 hour; read-out: pIC50 category (activity) (converted)

Compound | IC50 [nM]
CC(=O)N[C@H](C(=O)N[C@@H](Cc1ccc(O)cc1)C(=O)N[C@H]1CSCc2cccc(c2)CSC[C@@H](C(N)=O)NC(=O)[C@H](CO)NC(=O)[C@H](Cc2c[nH]c3ccccc23)NC(=O)[C@@H]2CCC(=O)NCCCC[C@H](NC(=O)[C@H]3CCCN3C(=O)[C@H](CCC(=O)O)NC1=O)C(=O)N[C@@H](Cc1c[nH]c3ccccc13)C(=O)NC1(CCOCC1)C(=O)N2)C(C)C [3BP-3962] (Ac-VYCE[dP]KW[Thp]EWSC-NH2; linker 3-12 via mXylylene; lactam 6-9) | 100 to 794
CC(C)C[C@@H]1NC(=O)[C@H](Cc2c[nH]c3ccccc23)NC(=O)[C@H](CC(=O)O)NC(=O)[C@H]2CCCN2C(=O)[C@H](CCC(=O)O)NC(=O)[C@@H]2CSCc3cccc(c3)CSC[C@@H](C(N)=O)NC(=O)[C@H](CCC(=O)NC[C@H](NC(=O)[C@@H](NC(=O)CN3CCC(NC(=O)CN4CCN(CC(=O)O)CCN(CC(=O)O)CCN(CC(=O)O)CC4)CC3)C(C)C)C(=O)N2)NC(=O)[C@H](Cc2c[nH]c3ccccc23)NC(=O)[C@H]([C@@H](C)O)NC1=O [3BP-4177] ({DOTA}-[X2]V[Dap]CE[dP]DWLTWEC-NH2; lactam 3-12; linker 4-13 via mXylylene) | < 10
CC(C)C[C@@H]1NC(=O)[C@H](Cc2cccc(NC(=O)C3CCC(S(N)(=O)=O)CC3)c2)NC(=O)[C@H](CC(=O)O)NC(=O)[C@H]2CCCN2C(=O)[C@H](CCC(=O)O)NC(=O)[C@@H](NC(=O)[C@H](CCC(N)=O)NC(=O)CN2CCN(C(=O)CN3CCN(CC(=O)O)CCN(CC(=O)O)CCN(CC(=O)O)CC3)CC2)CSCc2cccc(c2)CSC[C@@H](C(N)=O)NC(=O)[C@H](CO)NC(=O)[C@H](Cc2c[nH]c3ccccc23)NC(=O)[C@H]([C@@H](C)O)NC1=O (stereo partly drawn) [3BP-4787] | 100 to 794
CC(C)C[C@@H]1NC(=O)[C@H](Cc2c[nH]c3ccccc23)NC(=O)[C@H](CC(=O)O)NC(=O)[C@H]2CCCN2C(=O)[C@H](CCC(=O)O)NC(=O)[C@@H](NC(=O)[C@H](Cc2ccc(O)cc2)NC(=O)[C@@H](NC(=O)CN2CCC(NC(=O)CN3CCN(CC(=O)O)CCN(CC(=O)O)CCN(CC(=O)O)CC3)CC2)C(C)C)CSCc2cccc(c2)CSC[C@@H](C(N)=O)NC(=O)[C@H](CCCN(C)C)NC(=O)[C@H](Cc2c[nH]c3ccccc23)NC(=O)[C@H]([C@@H](C)O)NC1=O [3BP-4100] ({DOTA}-[X2]VYCE[dP]DWLTW[Orn(Me2)]C-NH2; linker 4-13 via mXylylene) | < 10

same assay, conditions: FACS binding assay, HT-29 cells, competition with tracer 3BP-4149 (3 nM, Cy5-labeled), 4° C., 1 hour; read-out: pIC50 category (activity) (converted)

Compound | IC50 [nM]
CC(C)C[C@@H]1NC(=O)[C@H](Cc2cccc(NC(=O)Cn3ccccc3=O)c2)NC(=O)[C@H](CC(=O)O)NC(=O)[C@H]2CCCN2C(=O)[C@H](CCC(=O)O)NC(=O)[C@@H](NC(=O)[C@H](Cc2ccc(O)cc2)NC(=O)[C@@H](NC(=O)CN2CCC(NC(=O)CN3CCN(CC(=O)O)CCN(CC(=O)O)CCN(CC(=O)O)CC3)CC2)C(C)C)CSCc2cccc(c2)CSC[C@@H](C(N)=O)NC(=O)[C@H](CO)NC(=O)[C@H](Cc2c[nH]c3ccccc23)NC(=O)[C@H]([C@@H](C)O)NC1=O [3BP-4370] ({DOTA}-[X2]VYCE[dP]D[X57]LTWSC-NH2; linker 4-13 via mXylylene) | 10 to 79.4

same assay, conditions: FACS competition on HT-29 cells, Tracer ID 3BP-2776 (10 nM, biotin-labeled), 4° C., 1 hour; read-out: pIC50 category (activity) (converted)

Compound | IC50 [nM]
CC(=O)N[C@H](C(=O)N[C@@H](Cc1ccc(O)cc1)C(=O)N[C@H]1CSCc2cccc(c2)CSC[C@@H](C(N)=O)NC(=O)CNC(=O)[C@H](Cc2c[nH]c3ccccc23)NC(=O)[C@H]([C@@H](C)O)NC(=O)[C@H](CC(C)C)NC(=O)[C@H](Cc2c[nH]c3ccccc23)NC(=O)[C@H](CC(=O)O)NC(=O)CN(C)C(=O)[C@H](CCC(=O)O)NC1=O)C(C)C [3BP-3304] (Ac-VYCE[Sar]DWLTWGC-NH2; linker 3-12 via mXylylene) | < 10
CC(=O)N[C@H](C(=O)N[C@@H](Cc1ccc(O)cc1)C(=O)N[C@H]1CSCc2cccc(c2)CSC[C@@H](C(N)=O)NC(=O)[C@H](CCC(N)=O)NC(=O)[C@H](Cc2c[nH]c3ccccc23)NC(=O)[C@@H]([C@H](C)O)NC(=O)[C@H](CC(C)C)NC(=O)[C@H](Cc2c[nH]c3ccccc23)NC(=O)[C@H](CC(=O)O)NC(=O)CNC(=O)[C@H](CCC(=O)O)NC1=O)C(C)C [3BP-3049] (Ac-VYCEGDWL[dT]WQC-NH2; linker 3-12 via mXylylene) | 100 to 794
CC(C)C[C@@H]1NC(=O)[C@H](Cc2c[nH]c3ccccc23)NC(=O)[C@H](CC(=O)O)NC(=O)[C@@H](C)NC(=O)[C@H](CCC(=O)O)NC(=O)[C@@H](NC(=O)[C@H](Cc2ccc(O)cc2)NC(=O)[C@@H](NC(=O)CCC(=O)NCCCOCCOCCOCCCNC(=O)CN2CCN(CC(=O)O)CCN(CC(=O)O)CCN(CC(=O)O)CC2)C(C)C)CSCc2cccc(c2)CSC[C@@H](C(N)=O)NC(=O)[C@H](CCC(N)=O)NC(=O)[C@H](Cc2c[nH]c3ccccc23)NC(=O)[C@H]([C@@H](C)O)NC1=O [3BP-3270] ({X3-Suc}-VYCE[dA]DWLTWQC-NH2; linker 3-12 via mXylylene) | < 10
CC(=O)N[C@H](C(=O)N[C@@H](Cc1ccccc1)C(=O)N[C@H]1CSCc2cccc(c2)CSC[C@@H](C(N)=O)NC(=O)[C@H](CO)NC(=O)[C@H](Cc2c[nH]c3ccccc23)NC(=O)[C@H]([C@@H](C)O)NC(=O)[C@H](CC(C)C)NC(=O)[C@H](Cc2c[nH]c3ccccc23)NC(=O)[C@H](CC(=O)O)NC(=O)[C@H]2CCCN2C(=O)[C@H](CCC(=O)O)NC1=O)C(C)C [3BP-3570] (Ac-VFCE[dP]DWLTWSC-NH2; linker 3-12 via mXylylene) | < 10
CC(=O)N[C@H](C(=O)N[C@@H](Cc1ccc(O)cc1)C(=O)N[C@H]1CSCc2cccc(c2)CSC[C@@H](C(N)=O)NC(=O)[C@H](CCC(N)=O)NC(=O)[C@H](Cc2c[nH]c3ccccc23)NC(=O)[C@H]([C@@H](C)O)NC(=O)[C@H](C)NC(=O)[C@H](Cc2c[nH]c3ccccc23)NC(=O)[C@H](CC(=O)O)NC(=O)CNC(=O)[C@H](CCC(=O)O)NC1=O)C(C)C [3BP-3055] (Ac-VYCEGDWATWQC-NH2; linker 3-12 via mXylylene) | 100 to 794
CC(=O)N[C@H](C(=O)N1Cc2ccccc2C[C@H]1C(=O)N[C@H]1CSCc2cccc(c2)CSC[C@@H](C(N)=O)NC(=O)[C@H](CO)NC(=O)[C@H](Cc2c[nH]c3ccccc23)NC(=O)[C@H]([C@@H](C)O)NC(=O)[C@H](CC(C)C)NC(=O)[C@H](Cc2c[nH]c3ccccc23)NC(=O)[C@H](CC(=O)O)NC(=O)[C@H]2CCCN2C(=O)[C@H](CCC(=O)O)NC1=O)C(C)C [3BP-3572] (Ac-V[Tic]CE[dP]DWLTWSC-NH2; linker 3-12 via mXylylene) | 10 to 79.4
CC(=O)N[C@H](C(=O)N[C@@H](Cc1ccc(O)cc1)C(=O)N[C@H]1CSCc2cccc(c2)CSC[C@@H](C(N)=O)NC(=O)[C@H](CCC(N)=O)NC(=O)[C@H](Cc2c[nH]c3ccccc23)NC(=O)[C@H]([C@@H](C)O)NC(=O)[C@H](CC(C)C)NC(=O)[C@H](Cc2cccc3ccccc23)NC(=O)[C@H](CC(=O)O)NC(=O)CN(C)C(=O)[C@H](CCC(=O)O)NC1=O)C(C)C [3BP-3314] (Ac-VYCE[Sar]D[1Nal]LTWQC-NH2; linker 3-12 via mXylylene) | < 10
CC(=O)N[C@H](C(=O)N[C@@H](Cc1ccc(O)cc1)C(=O)N[C@@H]1CSCc2cccc(c2)CSC[C@@H](C(N)=O)NC(=O)[C@H](CO)NC(=O)[C@H](Cc2c[nH]c3ccccc23)NC(=O)[C@H]([C@@H](C)O)NC(=O)[C@H](CC(C)C)NC(=O)[C@H](Cc2c[nH]c3ccccc23)NC(=O)CCNC1=O)C(C)C [3BP-3604] (Ac-VY[dC][βAla]WLTWSC-NH2; linker 3-10 via mXylylene) | 100 to 794
CC(C)CC(=O)N[C@@H](CCC(=O)O)C(=O)N[C@H]1CSCc2cccc(c2)CSC[C@@H](C(N)=O)NC(=O)[C@H](CO)NC(=O)[C@H](Cc2c[nH]c3ccccc23)NC(=O)[C@H]([C@@H](C)O)NC(=O)[C@H](CC(C)C)NC(=O)[C@H](Cc2c[nH]c3ccccc23)NC(=O)[C@H](CC(=O)O)NC(=O)[C@H]2CCCN2C(=O)[C@H](CCC(=O)O)NC1=O [3BP-3728] (Isovaleryl-ECE[dP]DWLTWSC-NH2; linker 2-11 via mXylylene) | < 10
CC(C)CC(=O)N[C@H](C(=O)N[C@@H](Cc1ccc(O)cc1)C(=O)N[C@H]1CSCc2cccc(c2)CSC[C@@H](C(N)=O)NC(=O)[C@H](CCC(N)=O)NC(=O)[C@H](Cc2c[nH]c3ccccc23)NC(=O)[C@H]([C@@H](C)O)NC(=O)[C@H](CC(C)C)NC(=O)[C@H](Cc2c[nH]c3ccccc23)NC(=O)[C@H](CC(=O)O)NC(=O)CNC(=O)[C@H](CCC(=O)O)NC1=O)C(C)C [3BP-3111] (Isovaleryl-VYCEGDWLTWQC-NH2; linker 3-12 via mXylylene) | < 10
CC(=O)N[C@H](C(=O)N[C@@H](Cc1ccc(O)cc1)C(=O)N[C@H]1CSCc2cccc(c2)CSC[C@@H](C(N)=O)NC(=O)[C@H](CO)NC(=O)[C@H](Cc2c[nH]c3ccccc23)NC(=O)[C@@H]2CCC(=O)NCCCC[C@H](NC1=O)C(=O)N1CCC[C@@H]1C(=O)N[C@@H](CC(=O)O)C(=O)N[C@@H](Cc1c[nH]c3ccccc13)C(=O)N[C@@H](CC(C)C)C(=O)N2)C(C)C [3BP-3888] (Ac-VYCK[dP]DWLEWSC-NH2; linker 3-12 via mXylylene; lactam 4-9) | 10 to 79.4
